Laboratory results: the Deep4Chem optical property database
Where “and” joins values, the source holds several entries; their conditions need not be identical. Equal values may be shown once. Blank lines part the entries; values can stand above or below the compound they belong to.

Assay: solvent given as SMILES

Structure (SMILES): CCC1(CC)c2cc(C#Cc3cc(C#Cc4ccc5c(c4)C(CC)(CC)c4cc(N(c6ccccc6)c6ccccc6)ccc4-5)c4ccc5c(C#Cc6ccc7c(c6)C(CC)(CC)c6cc(N(c8ccccc8)c8ccccc8)ccc6-7)cc(C#Cc6ccc7c(c6)C(CC)(CC)c6cc(N(c8ccccc8)c8ccccc8)ccc6-7)c6ccc3c4c65)ccc2-c2ccc(N(c3ccccc3)c3ccccc3)cc21
emission maximum (in C1CCCCC1): 524 nm
emission maximum (in C1CCOC1): 552 nm
emission maximum (in CCOC(C)=O): 545 nm
emission maximum (in CN(C)C=O): 557 nm
emission maximum (in Cc1ccccc1): 535 nm
emission maximum (in ClC(Cl)Cl): 545 nm
emission maximum (in ClCCl): 567 nm

Structure (SMILES): CCC1=C(C)C(=O)n2c1cc1c(C)c(CC)c(C)n1c2=O
emission maximum (in CO): 540 nm
emission maximum (in CS(C)=O): 510 nm
emission maximum (in ClC(Cl)Cl): 500 nm
emission maximum (in c1ccccc1): 500 nm

Structure (SMILES): CCCCCCCCCCCCC(CCCCCCCCCC)Cn1c2cc(/C=C/C=C(C#N)C#N)c3cccc4c5cccc6c(/C=C/C=C(C#N)C#N)cc1c(c65)c2c34 (configuration not stated)
emission maximum (in C1CCCCC1): 648 nm
emission maximum (in CC#N): 702 nm
emission maximum (in Cc1ccccc1): 668 nm
emission maximum (in ClCCl): 697 nm

Structure (SMILES): CC[n+]1c(-c2ccccc2)c2cc(NC(=O)N[C@H]3C[C@@H]([NH3+])[C@H](O)[C@@H](O)[C@@H]3O)ccc2c2ccc(NC(=O)N[C@@H]3C[C@H]([NH3+])[C@@H](O)[C@@H](O)[C@H]3O)cc21
emission maximum (in O): 522 nm

Structure (SMILES): COCCOc1ccc(OCCOC)c(C=O)c1
emission maximum (in CC(C)(C)O): 441 nm
emission maximum (in CC(C)CO): 451 nm
emission maximum (in CC(C)O): 453 nm
emission maximum (in CCCCO): 457 nm
emission maximum (in CCCO): 458 nm
emission maximum (in CCO): 462 nm
emission maximum (in CN(C)C=O): 425 nm
emission maximum (in CNC=O): 459 nm
emission maximum (in CO): 467 nm
emission maximum (in NC=O): 464 nm
emission maximum (in O): 483 nm

Structure (SMILES): CN(C)c1ccc2c(c1)COc1c-2oc2ccccc2c1=O
emission maximum (in C1CCCCC1): 411.43 nm
emission maximum (in CC#N): 489 nm and 491.43 nm
emission maximum (in CCOC(C)=O): 464 nm and 461.07 nm
emission maximum (in Cc1ccccc1): 441 nm

Structure (SMILES): CN(C)c1ccc2cc3c(cc2c1)OCCN=C3
emission maximum (in C1CCOC1): 425 nm
emission maximum (in CC#N): 562 nm
emission maximum (in CC(C)O): 447 nm
emission maximum (in CCOC(C)=O): 426 nm
emission maximum (in CN(C)C=O): 442 nm
emission maximum (in CS(C)=O): 447 nm
emission maximum (in Cc1ccccc1): 415 nm
emission maximum (in ClCCl): 532 nm
emission maximum (in O): 559 nm

Structure (SMILES): O=c1[nH]c2ccccc2[nH]1
emission maximum (in C1CCOC1): 315 nm
emission maximum (in CC#N): 313.01 nm
emission maximum (in CC(C)=O): 307 nm
emission maximum (in CCCCCCC): 297 nm
emission maximum (in CCCCCl): 302 nm
emission maximum (in CCCCO): 311 nm
emission maximum (in CCCO): 310 nm
emission maximum (in CCCOCCC): 310 nm
emission maximum (in CCO): 310 nm

Structure (SMILES): CCCCC(CC)COc1ccc2nc(-c3ccc(-c4ccccc4)s3)sc2c1 (configuration not stated)
emission maximum (in ClCCl): 423 nm

Structure (SMILES): CCCCCCN(CCCCCC)c1ccc(C#Cc2ccc(/C=C/c3ccc(-c4ccc(/C=C/c5ccc(C#Cc6ccc(N(CCCCCC)CCCCCC)cc6)cc5)cc4)cc3)cc2)cc1
emission maximum (in Cc1ccccc1): 452 nm

Structure (SMILES): O=C(c1ccc(C(=O)c2ccc(N3c4ccccc4Oc4ccccc43)cc2)cc1)c1ccc(N2c3ccccc3Oc3ccccc32)cc1
emission maximum (in Cc1ccccc1): 600 nm
emission maximum (in c1cc(-c2cccc(-n3c4ccccc4c4ccccc43)c2)cc(-n2c3ccccc3c3ccccc32)c1): 555 nm

Structure (SMILES): CC(O)CC1=N/C(=C\c2cccc(N(C)C)c2)C(=O)N1C (configuration not stated)
emission maximum (in C1CCOC1): 585 nm
emission maximum (in CC#N): 642 nm
emission maximum (in CCCCCC): 506 nm

Structure (SMILES): NC(=O)C1=CN([C@H]2C[C@H](O)[C@@H](COP(=O)([O-])OP(=O)([O-])OC[C@H]3O[C@@H](n4cnc5c(N)ncnc54)C[C@@H]3O)O2)C=CC1
emission maximum (in O): 450 nm

Structure (SMILES): FC(F)(F)c1ccc(/C=C/c2ccc(-c3nnc(-c4ccc(-c5cc6ccccc6s5)cc4)o3)cc2)cc1
emission maximum (in CC#N): 388 nm
emission maximum (in CC(C)=O): 390 nm
emission maximum (in CCCCCCCC): 387 nm
emission maximum (in CCCCCCCCCCO): 395 nm
emission maximum (in CCCCCCCCO): 394 nm
emission maximum (in CCCCCO): 393 nm
emission maximum (in CCCO): 391 nm
emission maximum (in CN(C)C=O): 416 nm
emission maximum (in CO): 389 nm
emission maximum (in CS(C)=O): 397 nm

Structure (SMILES): CSc1ccc(/C=C/c2ccncn2)cc1
emission maximum (in ClCCl): 435 nm

Structure (SMILES): CC1(C)c2ccccc2N(c2ccc(C(=CC#N)c3ccc(N4c5ccccc5C(C)(C)c5ccccc54)cc3)cc2)c2ccccc21
emission maximum (in Cc1ccccc1): 519 nm

Structure (SMILES): CCCCCCCCCCCCOc1ccc(C#Cc2ccc(C#Cc3ccc(OCCCCCCCCCCCC)c(OCCCCCCCCCCCC)c3)c3nc4c5ccccc5c5ccccc5c4nc23)cc1OCCCCCCCCCCCC
emission maximum (in C1CCOC1): 558 nm
emission maximum (in Cc1ccccc1): 541 nm
emission maximum (in ClCCl): 566 nm

Structure (SMILES): CC(C)[Si]1(C(C)C)c2cc(C#N)ccc2-c2ccc(N(C)C)cc21
emission maximum (in C1CCCCC1): 410 nm
emission maximum (in CC#N): 464 nm
emission maximum (in CCO): 456 nm
emission maximum (in CCOCC): 423 nm
emission maximum (in CS(C)=O): 473 nm
emission maximum (in ClCCl): 442 nm
emission maximum (in c1ccccc1): 422 nm

Structure (SMILES): CCCCCCn1c(=O)c2c3[nH]c4ccccc4oc3c3c(=O)n(CCCCCC)c(=O)c3c2c1=O
emission maximum (in ClCCl): 560 nm

Structure (SMILES): COc1ccc(/C=C/c2nc(/C=C/c3ccc(N(C)C)cc3)cc(/C=C/c3ccc(N(C)C)cc3)n2)cc1
emission maximum (in C1CCOC1): 522 nm
emission maximum (in CC#N): 581 nm
emission maximum (in CC(C)=O): 559 nm
emission maximum (in CCCCCCC): 450 nm
emission maximum (in CS(C)=O): 598 nm
emission maximum (in Cc1ccccc1): 480 nm
emission maximum (in ClCCl): 533 nm

Structure (SMILES): CN1c2cc3nc4cc(Br)c(Br)cc4nc3cc2N(C)C1(C)C
emission maximum (in CCO): 500 nm

Structure (SMILES): COC(=O)c1noc(-c2ccccc2)c1Br
emission maximum (in C1CCCCC1): 344 nm

Structure (SMILES): C[C@]12SC(=O)C=C1c1nc(-c3ccccc3)[nH]c1C1=CC(=O)S[C@@]12C
emission maximum (in CC#N): 513 nm

Structure (SMILES): CCN(CC)c1ccc(-c2nc3c(c4c2-c2ccccc2CC4)-c2ccccc2CC3)cc1
emission maximum (in C1CCOC1): 452 nm
emission maximum (in CC#N): 463 nm
emission maximum (in CCCCCC): 425 nm
emission maximum (in CCOC(C)=O): 449 nm
emission maximum (in CO): 461 nm
emission maximum (in CS(C)=O): 470 nm
emission maximum (in Cc1ccccc1): 437 nm
emission maximum (in ClCCl): 449 nm

Structure (SMILES): CN(C)c1ccc(-c2nc(C#N)c(C#N)n2C)cc1
emission maximum (in C1CCCCC1): 375 nm
emission maximum (in CC#N): 519 nm
emission maximum (in CO): 427 nm
emission maximum (in ClC(Cl)Cl): 437 nm

Structure (SMILES): c1ccc(-c2nc(-c3ccccc3)nc(-c3ccc(-n4c5ccccc5c5c6c(ccc54)-c4ccccc4C6(c4ccccc4)c4ccccc4)cc3)n2)cc1
emission maximum (in C1CCOC1): 504.15 nm
emission maximum (in CCCCCC): 407.03 nm
emission maximum (in Cc1ccccc1): 446 nm
emission maximum (in ClCCl): 530.05 nm
emission maximum (in O=P(c1ccccc1)(c1ccccc1)c1ccccc1Oc1ccccc1P(=O)(c1ccccc1)c1ccccc1): 475 nm

Structure (SMILES): CCC1=C(C)C2=C(c3c4ccccc4c(C)c4ccccc34)c3c(C)c(CC)c(C)n3[B-](F)(F)[N+]2=C1C
emission maximum (in CC#N): 538 nm
emission maximum (in CCCCCC): 540 nm
emission maximum (in CCO): 538 nm
emission maximum (in CN(C)C=O): 540 nm
emission maximum (in Cc1ccccc1): 544 nm
emission maximum (in ClCCl): 543 nm

The remaining lines, values ahead:

emission maximum (in ClCCl): 440 nm
Structure (SMILES): CCn1c2c(-c3ccc(-c4cccs4)s3)cc(C(C)(C)C)cc2c2cc(C(C)(C)C)cc(-c3ccc(-c4cccs4)s3)c21

emission maximum (in CS(C)=O): 441 nm
Structure (SMILES): O=C1CCCC2=C1C(c1ccc([N+](=O)[O-])cc1)c1c(c3ccccc3oc1=O)N2 (configuration not stated)

emission maximum (in ClCCl): 373 nm
Structure (SMILES): CCCCCCCCOc1ccc(C#Cc2ccc3oc4ccccc4c3c2)c(OCCCCCCCC)c1

emission maximum (in ClC(Cl)Cl): 480 nm
Structure (SMILES): FC(F)(F)c1ccc(-c2nc(-c3ccc(C(F)(F)F)cc3)n3ccccc23)cc1

emission maximum (in CCCCCC): 377 nm
emission maximum (in CO): 377 nm
emission maximum (in ClCCl): 378 nm
Structure (SMILES): Cc1ccc2ccc3cccc4ccc1c2c34

emission maximum (in ClCCl): 407 nm
Structure (SMILES): COc1ccc(C(=O)NC(C)(C)C)c2c1ccc1c3ccccc3c3ccccc3c12

emission maximum (in CN(C)C=O): 441 nm
Structure (SMILES): Cc1nc2cccc(-c3nc4ccccc4[nH]3)c2c(=O)[nH]1

emission maximum (in CCO): 424 nm
Structure (SMILES): COc1cc2c(cc1F)c(=O)c1cc(F)c(OC)cc1n2-c1ccccc1

emission maximum (in C1CCOC1): 483 nm
emission maximum (in CC#N): 495 nm
emission maximum (in ClC(Cl)Cl): 490 nm
emission maximum (in ClCCl): 492 nm
Structure (SMILES): COc1cc(/C=C/c2nc3ccccc3o2)c(OC)cc1/C=C/c1nc(C)nc(C)n1

emission maximum (in ClC(Cl)Cl): 518 nm
Structure (SMILES): C[Si]1(C)O[Si](C)(C)c2cc3cc4cc5c(cc4cc3cc21)C(=O)c1cc2cc3cc4c(cc3cc2cc1C5=O)[Si](C)(C)O[Si]4(C)C

emission maximum (in ClCCl): 500 nm
Structure (SMILES): CCCCOc1c(-c2ccc(C=O)cc2)cc2cc(-c3ccc(C=O)cc3)c(OCCCC)c3c4c(OCCCC)c(-c5ccc(C=O)cc5)cc5cc(-c6ccc(C=O)cc6)c(OCCCC)c(c1c23)c54

emission maximum (in ClC(Cl)Cl): 714 nm
Structure (SMILES): Cc1ccc(C2=C3C=CC4=[N+]3[P-](=O)(=O)n3c2ccc3-c2ccc([nH]2)/C(c2ccc(C)cc2)=c2/cc/c(o2)=C(\c2ccc(C)cc2)c2ccc4[nH]2)cc1

emission maximum (in C1CCCCC1): 449 nm
emission maximum (in C1CCOC1): 498 nm
emission maximum (in CC#N): 543 nm
emission maximum (in CS(C)=O): 547 nm
emission maximum (in ClCCl): 520 nm
Structure (SMILES): C(=C\c1ncc2ccccc2n1)/c1ccc(N(c2ccccc2)c2ccccc2)cc1

emission maximum (in ClCCl): 405 nm
Structure (SMILES): CC(=O)c1ccc(-c2cc(C)[o+]c(C)c2)cc1

emission maximum (in CCCCCC): 615 nm
emission maximum (in CCCCCCCCO): 623 nm
emission maximum (in CCOC(C)=O): 618 nm
emission maximum (in CN(C)C=O): 624 nm
emission maximum (in ClCCl): 629 nm
Structure (SMILES): CC1=CC(C)=[N+]2C1=Cc1c3ccccc3c(C#Cc3ccccc3)n1[B-]2(F)F

emission maximum (in ClCCl): 744 nm
Structure (SMILES): C1=Cc2nc1c(-c1ccccc1)c1ccc([nH]1)c(-c1ccccc1)c1cc(c(-c3ccccc3)c3ccc([nH]3)c2-c2ccccc2)N=C1

emission maximum (in CC#N): 703 nm
emission maximum (in ClCCl): 680 nm
emission maximum (in O): 698 nm
Structure (SMILES): CN(C)c1ccc(/C=C/c2cc[n+](C)c3ccccc23)cc1

emission maximum (in ClCCl): 427 nm
Structure (SMILES): CCCCCC(=O)c1cccc2sc3c(c12)P(=O)(c1ccccc1)c1ccccc1-3 (configuration not stated)

emission maximum (in ClCCl): 742 nm
Structure (SMILES): CCCCCCOc1cc(N(CC)CC)ccc1/C=C(\C#N)c1ccc(/C=C/C(=C(C#N)C#N)c2ccc3c(c2)c2ccccc2n3CC)s1
